Source: US7723063B2, “Methods for measuring levels of bioactive human hepcidin” (Intrinsic Lifesciences, priority 2004, dated 2010)
Values after ≈ are worked out from the molar mass of the structure shown. Ends that are not written are not given here. Peptide text beside a SMILES is read from it.

How the values were obtained:
[1] = Serum hepcidin after IP injection of synthetic bass hepcidin, competitive ELISA; type: in vivo; conditions: HSB
Method: Competition ELISA Protocol. A high-binding 96-well microplate (Corning, Inc., Cat. No. 3590) was coated with 100 μl of a 1:5,000 dilution of affinity-purified rabbit anti-HSB hepcidin antibody (0.68 mg/ml) in carbonate-bicarbonate coating buffer pH 9.6 (Sigma-Aldrich Corp., Cat. No. C-3041). One well contained 100 μl carbonate-bicarbonate coating buffer and no antibody. The plate was covered and placed at 4°C. Following a suitable period of incubation at 4° C., the plate was washed with three, 300 μl volumes of PBS-T (PBS containing 0.05% TWEEN-20™). Next, the plate was blocked with 250 μl of a 2% (w/v) dry milk solution in PBS, covered, and incubated for one hour at RT, shaking at 150 rpm. Samples and standard curves were prepared in a separate 96-well plate. Serum, plasma, and urine samples were diluted with PBS diluted to be within the working range of the standard curve. An aliquot of biotinylated AEEAc-derivatized hepcidin (0.21 mg/ml diluted 1:2000) was added to each well to give a final biotinylated hepcidin concentration of 94.5 ng/ml. From each well of the sample/standard curve dilution plate, 100 μl was transferred to the antibody coated and blocked plate. The plate was covered and incubated at RT, shaking at 150 rpm, for 1 hour to allow competitive binding to occur. […] Absorbance at 450 nm was determined using a THERMOMAX™ microplate reader with SOFTMAX PRO™ software (Molecular Devices). Data were analyzed using a spreadsheet program. […]
The data from these studies is separated by double lines. […] The second data set is from a field study Production Tank 32, where HSB without apparent clinical disease ‘Clinically Healthy’ and “Infected/Moribund” HSB were sampled and their serum hepcidin levels determined (Rows 4-5). […] The fourth experiment is a clinical where the indicated quantities of synthetic, bioactive, bass hepcidin was injected IP and measured in their serum at the indicated timepoints (Rows 8-11). […]

S. iniae = test system: S. iniae
Method: (§1) Antimicrobial Synergism Studies. Synergism between synthetic bass hepcidin and moronecidin was tested in checkerboard liquid growth inhibition assays. In brief, two-fold serial dilutions of each peptide were made in water, and 10 μl of the solution added to the bottom of the wells of a 96-well plate. Ninety μl of exponential phase bacterial cultures (OD600˜0.2) were freshly diluted in culture media to ˜2×10^5 CFU ml^−1 and added to peptide solutions. Controls consisted of wells with the appropriate volume and concentration of each peptide alone, or of water. Bacterial viability was assayed at 2 h by plating aliquots of the bacterial suspension for CFU enumeration. The bacterial suspensions were further incubated overnight at 37° C. and bacterial growth was monitored by optical density at 600 nm for determination of MIC. Synergistic activity was quantify as fractional inhibition concentration (FIC) index=([A]/MICA)+([B]/MICB), where MICA and MICB are the MICs of the peptides alone and [A] and [B] are the MICs of A and B when used together.
(§2) To test for synergism between the two antimicrobial peptides in vitro, we conducted liquid growth inhibition/killing experiments with a Gram-positive (S. iniae) and a Gram-negative bacterium (Y enterocolitica) using varying concentrations of the two synthetic peptides. The bacteria were cultured in the presence of synthetic bass hepcidin and moronecidin and plated after 2 h incubation at 37° C. for determination of CFU (FIG. 14).

spores of A. niger = test: Germination and fungicidal assay; type: cell-based; conditions: 48 hr exposure, re-culture in fresh medium
Method: Germination and Fungicidal Assay. Spores of A. niger were harvested and resuspended in sterile water containing 0.05% TWEEN-80™, and the concentration adjusted to approximately 10^8 spores per ml. Spores were diluted in half-strength PDB containing 16 μM chloramphenicol to a final concentration of 10^5 spores per ml. Ninety μl of the suspension was placed in sterile flat-bottomed polystyrene 96-well plates with 10 μl of serial dilutions of peptide (440 μM, 220 μM, 110 μM, 55 μM), in water. Germination of spores was allowed to proceed for 2 days at 30° C. in the dark, after which hyphae density was measured by absorbance at 600 nm. After 2 days of incubation, the contents of wells showing no germination were centrifuged for 3 min at 5000 rpm, resuspended in 50 μl of fresh PDB media, and triplicate aliquots spotted onto PDB agar plates. Plates were placed at 30° C. for 3 days to monitor germination of hyphae. The absence of germination indicated fungicidal activity.
Fungicidal Activity. […] After 48 hr exposure to the respective peptides, spores were removed and cultured in fresh medium and examined 48 h later for growth.

[2] = Aggregation of bioactive hepcidin in phosphate buffered saline; type: physicochemical; conditions: pH 7.4
Description: Development of bass hepcidin enzyme/ligand conjugates for ELISA. We took advantage of the only available (N-terminal) primary amine group present in refolded bass hepcidin for conjugation to KLH using EDC (1-Ethyl-3-[3-Dimethylamino-propyl] carbodiimide HCl) and DSS (Disuccinimidyl suberate) chemistries. These approaches were very difficult to develop and apply to production of hepcidin conjugates due to hepcidin's inherent solubility issues in higher pH coupling buffers. […] We have encountered significant issues when trying to solubilize hepcidin at the higher concentrations (1-3 mg ml^−1) in standard coupling buffers desirable for production of high activity, soluble hepcidin-HRP conjugates for ELISA.

HSB erythrocytes = test: Hemolytic activity; type: cell-based, striped bass
Method: Hemolytic activity. Freshly packed striped bass erythrocytes (3 ml) isolated from young fingerlings (˜30 g) and adult fish (˜300 g) were washed with phosphate-buffered saline (PBS; pH 7.4) until the supernatant was colorless and resuspended in PBS (30 ml) supplemented with glucose (0.2%, w/v). Synthetic bass hepcidin (10 μl of 880-55 μM) was added to 90 μl of a 1% suspension of washed erythrocytes in microcentrifuge tubes. Triplicate samples were incubated for 30, 90, 180, and 240 min at 37° C. then centrifuged for 10 min at 3500 rpm. Supernatant from the erythrocyte suspension (70 μl) was placed in a microtiter plate and optical density at 405 nm determined. The percentage of hemolysis in hepcidin-treated erythrocytes was expressed relative to hemolysis obtained with a control erythrocyte suspension treated with 0.1% sodium dodecyl sulphate (SDS, 100% hemolysis).
Hemolytic Activity. The hemolytic activity of bass hepcidin was tested with erythrocytes from HSB. […] Greater than 98% of the bass erythrocytes exposed to 44 μM hepcidin for 3 h at 37° C. remained intact. This exposure corresponds to a time point when 96% of Y. enterocolitica exposed to 44 μM hepcidin have been killed (see FIG. 6, Panel A). After 4 h incubation with 44 μM hepcidin, more than 97% of the erythrocytes remained intact. No hemolysis was observed after 4 h at hepcidin concentrations of 11 μM and lower.

Yersinia enterocolitica = test: Microbicidal kinetics; type: cell-based
Method: Microbicidal Kinetics. An experiment was conducted to examine the microbicidal kinetics of bass hepcidin and to compare its killing activity to another bass antimicrobial peptide, moronecidin. Moronecidin is a 22 amino acid, linear, amphipathic α-helical peptide which was originally co-purified from the gill of HSB with hepcidin. […] We compared the killing kinetics of hepcidin and moronecidin against Y enterocolitica at 30 min intervals over a 3 h time period using 2× their MIC concentrations for this organism (44 and 10 μM; FIG. 12). The bactericidal activities of the peptides were assessed by plating cultures and counting CFUs after overnight incubation at 37° C.

[3] = Direct binding to ferric iron by NMR
Description: Instead, hepcidin has shown to have the capability of exerting its effects on the innate immune response of teleosts through a combination of activities. The bass model employed in these studies provides a powerful approach to further elucidate hepcidin function(s), including it potential role in hypoferremia in teleosts.

Y. enterocolitica = test system: Y. enterocolitica
Method: as §1, §2

## CSCC[C@@H]1NC(=O)[C@H](CC(N)=O)NC(=O)[C@@H]2CCCN2C(=O)[C@@H]2CSSC[C@@H]3NC(=O)[C@H](C(C)C)NC(=O)CNC(=O)[C@H](CSSC[C@@H]4NC(=O)[C@H](CSSC[C@H](NC(=O)[C@H](CC(N)=O)NC4=O)C(=O)N2)NC(=O)[C@H](Cc2ccccc2)NC(=O)[C@H](CCCNC(=N)N)NC(=O)[C@@H](NC(=O)CN)CSSC[C@@H](C(=O)N[C@@H](CCCNC(=N)N)C(=O)N[C@@H](Cc2ccccc2)C(=O)O)NC3=O)NC(=O)CNC(=O)[C@H](CO)NC1=O [bass hepcidin] (HELM PEPTIDE1{G.C.R.F.C.C.N.C.C.P.N.M.S.G.C.G.V.C.C.R.F}$PEPTIDE1,PEPTIDE1,2:R3-19:R3|PEPTIDE1,PEPTIDE1,5:R3-8:R3|PEPTIDE1,PEPTIDE1,6:R3-15:R3|PEPTIDE1,PEPTIDE1,9:R3-18:R3$$$V2.0; N-terminus and C-terminus assumed)
[1]; 50 ug, 50 μg IP
  level at 3 h: 39.3 µg/mL
[1]; 300 ug, 300 μg IP
  level at 3 h: 204 µg/mL
[1]; 2 × 300 μg IP (0 and 3 h), sampled 6 h
  level at 6 h: 230 µg/mL
S. iniae; 2 h incubation, concentrations as high as 88 μM
  Antimicrobial activity against S. iniae: no detectable antimicrobial activity
Spores of A. niger
  Fungicidal concentration: 44 µM
[2]
  Concentration at which it readily aggregates: 0.05 µg/mL
HSB erythrocytes; 5.5 μM, 30 min., 37° C.
  Hemolytic activity: 0% of controls
HSB erythrocytes; 5.5 μM, 90 min.
  Hemolytic activity: 0% of controls
HSB erythrocytes; 5.5 μM, 180 min.
  Hemolytic activity: 0% of controls
HSB erythrocytes; 11 μM, 30 min.
  Hemolytic activity: 0% of controls
HSB erythrocytes; 11 μM, 90 min.
  Hemolytic activity: 0% of controls
HSB erythrocytes; 11 μM, 180 min.
  Hemolytic activity: 0% of controls
HSB erythrocytes; 22 μM, 30 min.
  Hemolytic activity: 0% of controls
HSB erythrocytes; 22 μM, 90 min.
  Hemolytic activity: 0% of controls
HSB erythrocytes; 22 μM, 180 min.
  Hemolytic activity: 0.4 ± 0.15% of controls
HSB erythrocytes; 22 μM, 240 min.
  Hemolytic activity: 0.4 ± 0.4% of controls
HSB erythrocytes; 44 μM, 30 min.
  Hemolytic activity: 0% of controls
HSB erythrocytes; 44 μM, 90 min.
  Hemolytic activity: 0% of controls
HSB erythrocytes; 44 μM, 3 h, 37° C.
  Erythrocytes remaining intact: Greater than 98%
HSB erythrocytes; 44 μM, 180 min.
  Hemolytic activity: 1.4 ± 0.3% of controls
HSB erythrocytes; 44 μM, 4 h
  Erythrocytes remaining intact: more than 97%
HSB erythrocytes; 44 μM, 240 min.
  Hemolytic activity: 2.5 ± 1.2% of controls
HSB erythrocytes; 4 h, 11 μM and lower
  Hemolysis: No hemolysis
Yersinia enterocolitica; 44 μM
  Time required for 90% reduction of CFU from the original inoculum: Two and half hours
Yersinia enterocolitica; 22 and 44 μM
  State of cultures at 30 min: actually growing
Yersinia enterocolitica; Y. enterocolitica
  MIC: 22 µM (≈ 49.6 µg/mL)
[3]
  Direct binding to ferric iron: no evidence

## FFHHIFRGIVHVGKTIHKLVTG-NH2 (C-terminus assumed) [moronecidin, reference compound]
S. iniae
  MIC: 2.5 µM
Y. enterocolitica
  MIC: 5 µM
Spores of A. niger
  Fungicidal concentration: 10 µM
Yersinia enterocolitica; 10 μM (2× MIC), after 30 min
  Decrease in CFU: 90%
E. coli
  MIC: 5 µM
